From ChEMBL document CHEMBL1156660, “Alkaloids from the mushroom Pseudobaeospora pyrifera, pyriferines A-C” (J Nat Prod, 2008) come the findings set out here.

As usually defined, the inhibition is the drop in the measured response relative to a control, in per cent.

The target in this assay is Acetylcholinesterase (Homo sapiens) (UniProt P22303). In words: Inhibition of acetylcholinesterase at 100 uM by chemiluminescence method.
Chain of Acetylcholinesterase (Homo sapiens) (P22303 whole entry): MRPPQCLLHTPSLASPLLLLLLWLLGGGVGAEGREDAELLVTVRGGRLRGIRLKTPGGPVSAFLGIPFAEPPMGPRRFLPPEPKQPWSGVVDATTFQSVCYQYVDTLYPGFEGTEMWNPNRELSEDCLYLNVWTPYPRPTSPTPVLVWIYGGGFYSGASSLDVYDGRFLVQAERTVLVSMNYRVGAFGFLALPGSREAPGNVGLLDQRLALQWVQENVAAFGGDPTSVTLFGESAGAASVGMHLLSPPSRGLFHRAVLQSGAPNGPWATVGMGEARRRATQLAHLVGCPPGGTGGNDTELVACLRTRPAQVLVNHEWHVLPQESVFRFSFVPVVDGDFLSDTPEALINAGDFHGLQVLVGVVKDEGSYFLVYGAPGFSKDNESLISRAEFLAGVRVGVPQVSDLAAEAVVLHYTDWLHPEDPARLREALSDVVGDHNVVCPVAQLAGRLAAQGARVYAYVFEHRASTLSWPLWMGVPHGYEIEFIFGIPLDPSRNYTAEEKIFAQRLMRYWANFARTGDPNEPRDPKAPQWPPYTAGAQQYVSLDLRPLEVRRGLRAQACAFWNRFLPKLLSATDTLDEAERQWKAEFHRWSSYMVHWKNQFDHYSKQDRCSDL

The compound `C=C1CC[C@@H](OC)C(O)=C1C(=O)C1(C)NC(=O)CC[C@H](N)C(=O)O1` (some centres not stated) returned an inhibition of 7%. The result for `CO[C@@H]1CC[C@](C)(O)C(C(=O)C2(C)NC(=O)CC[C@H](N)C(=O)O2)=C1O` (some centres not stated) reads 20%.
